In ChEMBL document CHEMBL1201862, “PubChem BioAssay data set” (2004):
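Cultured in 96-well plates, cells were exposed to test compound for 48 hours across five concentrations. GI50 = concentration required for 50% inhibition of growth.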 The source made the active and inactive calls. No stated cut-off is given here; in the data, active = GI50 up to about 1.1 µM and inactive = higher.

Assays:
Test in all cases: inhibition of tumour cell growth, NCI panel, 48 h
SF-539 = system: SF-539
SNB-75 = system: SNB-75
HT-29 = system: HT-29
A549 = system: A549
HCC 2998 = system: HCC 2998
SN12C = system: SN12C
RPMI-8226 = system: RPMI-8226
SF-268 = system: SF-268
U-251 = system: U-251
TK-10 = system: TK-10
CCRF-CEM = system: CCRF-CEM
786-0 = system: 786-0
CAKI-1 = system: CAKI-1
OVCAR-3 = system: OVCAR-3
HOP-92 = system: HOP-92
Malme-3M = system: Malme-3M
UACC-62 = system: UACC-62
SK-OV-3 = system: SK-OV-3
NCI-H226 = system: NCI-H226
NCI-H522 = system: NCI-H522

Measured: GI50

CCOC(=O)C(NC(=O)CC)(Nc1cc(C)on1)C(F)(F)F (centres undefined)
inactive: SF-539 > 100 µM | SNB-75 > 100 µM | HT-29 > 100 µM | A549 > 100 µM | HCC 2998 > 100 µM | SN12C > 100 µM | RPMI-8226 > 100 µM | SF-268 > 100 µM | U-251 > 100 µM | TK-10 > 100 µM | CCRF-CEM > 100 µM | 786-0 > 100 µM

CC1C2(C)OC(=N)C(C#N)(C(C)O2)C1(C#N)C#N (centres undefined)
inactive: CAKI-1 13.6 µM | SF-539 22.1 µM | SNB-75 > 100 µM | HT-29 28.2 µM | OVCAR-3 24.5 µM | HOP-92 16.9 µM | A549 79.1 µM | HCC 2998 20.4 µM | Malme-3M 25 µM | SN12C 16.3 µM | UACC-62 19.8 µM | SF-268 30.8 µM | U-251 21.4 µM | TK-10 36.8 µM | CCRF-CEM 16 µM | 786-0 22 µM | SK-OV-3 > 100 µM | NCI-H226 > 100 µM

O=C1c2ccccc2C(=O)c2[nH]cnc21
inactive: CAKI-1 > 100 µM | SF-539 61.2 µM | HT-29 33.5 µM | OVCAR-3 21.5 µM | NCI-H522 34 µM | A549 55.3 µM | HCC 2998 48.4 µM | Malme-3M 20 µM | SN12C 95.7 µM | UACC-62 31.9 µM | SF-268 93.1 µM | U-251 73.8 µM | TK-10 > 100 µM | CCRF-CEM 49.9 µM | 786-0 75.9 µM | NCI-H226 29.8 µM

Nc1nc(-c2ccco2)cc(-c2ccc(CO)o2)n1
inactive: SF-539 > 100 µM | SNB-75 72.9 µM | HT-29 > 100 µM | OVCAR-3 > 100 µM | NCI-H522 85.5 µM | A549 > 100 µM | Malme-3M > 100 µM | SN12C > 100 µM | UACC-62 > 100 µM | RPMI-8226 41.4 µM | SF-268 > 100 µM | TK-10 > 100 µM | CCRF-CEM 76.4 µM | 786-0 > 100 µM | NCI-H226 54.3 µM

O=C(c1ccccc1)N1CCC(Nc2cccnc2)O1 (centres undefined)
inactive: SF-539 > 100 µM | HT-29 > 100 µM | OVCAR-3 > 100 µM | HOP-92 > 100 µM | A549 > 100 µM | HCC 2998 50.8 µM | Malme-3M 60.3 µM | SN12C > 100 µM | UACC-62 > 100 µM | SF-268 > 100 µM | U-251 > 100 µM | TK-10 > 100 µM | CCRF-CEM > 100 µM | 786-0 > 100 µM | SK-OV-3 > 100 µM | NCI-H226 > 100 µM

CC(=O)OC1c2ccccc2CCCCCCC12OCCO2 (centres undefined)
inactive: CAKI-1 51.9 µM | SF-539 > 100 µM | SNB-75 > 100 µM | HT-29 > 100 µM | OVCAR-3 33 µM | NCI-H522 50.9 µM | A549 > 100 µM | HCC 2998 > 100 µM | Malme-3M 92.5 µM | SN12C > 100 µM | UACC-62 > 100 µM | RPMI-8226 48.3 µM | SF-268 > 100 µM | U-251 > 100 µM | TK-10 > 100 µM | CCRF-CEM > 100 µM | 786-0 > 100 µM | SK-OV-3 > 100 µM | NCI-H226 > 100 µM

O=C(CC1(O)C(=O)Nc2c(Cl)cc(Cl)cc21)c1cccc2ccccc12 (centres undefined)
inactive: CAKI-1 11.8 µM | SF-539 17.1 µM | SNB-75 18.2 µM | HT-29 19.6 µM | OVCAR-3 16.1 µM | NCI-H522 14.3 µM | A549 15.1 µM | Malme-3M 19.5 µM | SN12C 18.4 µM | UACC-62 14.9 µM | RPMI-8226 19.6 µM | SF-268 21.4 µM | U-251 15.5 µM | TK-10 14.1 µM | CCRF-CEM 17.8 µM | 786-0 15.8 µM | SK-OV-3 16.6 µM | NCI-H226 16.5 µM

CS(=O)(=O)N(CCC#N)c1ccc(/C=N/NC(=O)CC(=O)Nc2cccc(Cl)c2)cc1
inactive: CAKI-1 > 100 µM | SF-539 > 100 µM | SNB-75 > 100 µM | HT-29 > 100 µM | OVCAR-3 > 100 µM | NCI-H522 > 100 µM | A549 > 100 µM | HCC 2998 > 100 µM | Malme-3M > 100 µM | SN12C > 100 µM | UACC-62 > 100 µM | RPMI-8226 > 100 µM | SF-268 > 100 µM | U-251 > 100 µM | TK-10 > 100 µM | CCRF-CEM > 100 µM | 786-0 > 100 µM | SK-OV-3 > 100 µM | NCI-H226 > 100 µM

O=C1C[C@@H]2[C@@H](c3ccccc3)[C@@H]3C(=O)c4ccccc4NC(=O)[C@H]3[C@]2(O)c2ccccc2N1
inactive: SNB-75 > 100 µM | HT-29 > 100 µM | OVCAR-3 > 100 µM | NCI-H522 > 100 µM | A549 > 100 µM | Malme-3M > 100 µM | SN12C > 100 µM | UACC-62 > 100 µM | RPMI-8226 > 100 µM | SF-268 > 100 µM | U-251 > 100 µM | TK-10 > 100 µM | CCRF-CEM > 100 µM | 786-0 > 100 µM | NCI-H226 > 100 µM

CC1CCc2c(sc3ncnc(N/N=C/c4ccc(Cl)c(Cl)c4)c23)C1 (centres undefined)
inactive: CAKI-1 26.2 µM | SF-539 21.7 µM | SNB-75 15.1 µM | HT-29 13.6 µM | OVCAR-3 17 µM | NCI-H522 5.45 µM | A549 4.13 µM | HCC 2998 23.6 µM | Malme-3M 31.2 µM | SN12C 19.4 µM | UACC-62 18.2 µM | RPMI-8226 13.2 µM | SF-268 13.3 µM | U-251 5.2 µM | TK-10 23.7 µM | CCRF-CEM 4.3 µM | 786-0 15.6 µM | SK-OV-3 25.2 µM | NCI-H226 16.4 µM

CC(C)CC(C#CCCOC(=O)c1ccccc1)OC(=O)c1ccccc1 (centres undefined)
active: SNB-75 0.445 µM
inactive: SF-539 > 10 µM | HT-29 > 10 µM | OVCAR-3 > 10 µM | HOP-92 > 10 µM | A549 > 10 µM | HCC 2998 > 10 µM | Malme-3M > 10 µM | SN12C > 10 µM | UACC-62 > 10 µM | SF-268 > 10 µM | U-251 > 10 µM | TK-10 > 10 µM | CCRF-CEM > 10 µM | 786-0 > 10 µM | SK-OV-3 > 10 µM | NCI-H226 > 10 µM

Cc1cccc(-n2c(C)nc3ccc(NC4OC(CO)C(O)C(O)C4O)cc3c2=O)c1 (centres undefined)
inactive: CAKI-1 > 100 µM | SNB-75 > 100 µM | HT-29 > 100 µM | OVCAR-3 > 100 µM | NCI-H522 > 100 µM | HCC 2998 > 100 µM | Malme-3M > 100 µM | SN12C > 100 µM | UACC-62 > 100 µM | RPMI-8226 > 100 µM | SF-268 > 100 µM | U-251 > 100 µM | TK-10 > 100 µM | 786-0 > 100 µM | NCI-H226 > 100 µM
